# Key:
# [1] = tested on: human 3D cornea-like EPIOCULAR; assay: Eye irritation, EPIOCULAR reconstructed cornea-like model, OECD 492 (MTT); assay type: cell-based; details: human, 30 min
# Method: Ocular irritancy: The purpose of this study was to evaluate any potential ocular irritation activity of KLS-13022 formulations compared to vehicle-only treated tissues in vitro on human 3D cornea-like EPIOCULAR by topical application according to OECD 492 protocol. Test formulations of KLS-13022 up to 3% w/v in 60:40 ethanol:water vehicle were prepared fresh before use. EPIOCULAR tissues were acclimated before treatments for 24 hours and later treated topically for 30 minutes with KLS-13022 (0.01, 0.1, 0.3 1, 3% w/v). Methyl acetate was used as positive eye irritant control. Tissue viability levels were measured by MTT reduction assay method after material treatments. The levels of tissue viability after each material treatment was compared to vehicle control group to determine any potential ocular irritation activity.
# Average levels of tissue viability were calculated for each treatment group. According to OECD 492 protocol, predicted positive eye irritation activities were determined when obtaining <60% tissue viability. […] Primary cornea-like inserts were used from human origin and purchased from MatTek (Ashland, Mass.). […] Tissues were cultured with standard conditions (37° C., 95% v/v air, 5% v/v CO2) and acclimated for 18+3 hours before dosing procedures.
# [2] = tested on: human dermal microvascular endothelial cells; assay type: cell-based; details: 6 h
# Method: Dermal Microvascular endothelial cells of human origin were cultured in vitro using standard conditions (37° C., 95% v/v air, 5% v/v CO2). Human cells were selected as relevant to cell types within skin tissues for this development program. Cell culture methods are commonly used in non-clinical studies conducted on pharmaceutical products. […] Cells were cultured until the third and fourth passage and then acclimated for 24 hours before Nickel induction and dosing procedures. Cell treatment groups were identified using appropriate 96-well plates. The test and control articles were administered to medium containing 1 mM NiSO4 in triplicates. The negative control group received vehicle-only (0.1% v/v final) dose. A fixed 0.1 μL/well from 1000× stock dose volume was administered to 100 μL of media to each cell culture well on Day 2 and incubated for 6 hours at 37 degrees. These cell cultures were also utilized to determine the concentrations of test agent that were non-toxic after 24 hours of incubation. Cell Viability assays were conducted using MTS reduction assays (Promega) diluted 1:5 in DMEM+10% FBS media as specified by the manufacturer. Absorbance was measured at 490 nm using plate reader and cell viability was calculated as a percent of control. This assay was done along with all culture systems that were utilized to study cytokine release. […]
# [3] = tested on: IL-1β; assay: IL-1β release from UV-B irradiated human epidermal keratinocytes (ELISA); assay type: cell-based; details: Keratinocyte, light or radiation study; UV-B 25 mJ/cm^2, human epidermal keratinocytes; read-out: IC50 of interleukin-1β inhibition
# Method: Normal human epidermal keratinocytes cultures were utilized to measure the release of proinflammatory cytokines and chemokines. Primary epidermal keratinocytes from neonatal donors were used from human origin and purchased from Thermo-Fisher (Cat No. A13401). […] Cells were cultured until the second passage and then acclimated for 48 hours more before UV-B irradiation. Dosing procedures and cell groups were identified using appropriate cell culture 24-well plates. The cell culture incubator was set at 5% v/v CO2 with temperature and humidity maintained at 36-38° C. and 40-70%, respectively. The test and control substances were administered to HKGS-depleted medium in triplicates. A fixed 5 μL/well from 100× stock dose volume was administered to 500 μL of media to each cell culture well on Day 3 and pre-incubated for 6 hours and then post-UVB incubated for 18 hours. […] Media supernatants were harvested and analyzed for TNFα and IL-1β levels by ELISA method. Cytokine levels were assessed from cell culture media supernatants using BD Biosciences OptEIA™ Human TNFα (Cat. No. 555212) and IL-1β (Cat. No. 557953) and ELISA set kit and Reagent Set B (Cat. No. 550534) according the manufacture's specifications. Absorbance was measured at 450 nm using a plate reader and calculated cytokine levels were determined from a standard curve.
# [4] = assay type: in vitro ADME, porcine
# Method: Percutaneous absorption (Franz cell). For these studies, porcine ear skin (n=3; 1.5 in^2) obtained from Animal Technologies, Inc. (Tyler, T X) were utilized, Skins were thawed for 30 min at room temperature. After thawing, skin was placed over receptor compartment of the unjacketed Franz cell chamber with stir bar obtained from Permegear and covered with the donor compartment. The clamp was then placed to hold the cell together. The receptor compartment was filled with 12 mL of 1M PBS buffer+4% BSA and 0.1% sodium azide through the sampling port using a syringe. Franz cell was placed on a stir plate at ˜600 RPM and heated till the buffer reached 37° C. 400 μL of 3H—H2O (˜1.5 million counts) was then placed on the membrane for 5 min. […] After 30 min, 250 μL of the receptor buffer was removed in triplicate and counted to check the integrity of the skin (>0.4 μl/cm^2 was considered acceptable). […] Extraction and homogenization were performed to quantify the amount of formulation remaining in the epidermis and dermis. […] The concentration of KLS-13022 was measured by liquid chromatography coupled with tandem mass spectrometry (LC/MS/MS). […] The analytes and internal standard were detected using an Applied Biosystem API-3000 mass spectrometer equipped with a Turbo-Ion Spray (Electrospray, ESI) source that was operated in multiple reaction monitoring mode (MRM) under positive ion mode.
smiles,measurement,setting,value
"C=C(C)[C@@H]1CCC(C)=C[C@H]1c1c(O)cc(CC2CN(C(=O)OCC)C2)cc1O [KLS-13022, ethyl 3-(3,5-dihydroxy-4-((1R,6R)-3-methyl-6-(prop-1-en-2-yl)cyclohex-2-enyl)benzyl)azetidine-1-carboxylate]",tissue viability,[1],≥ 60%
same,non-toxic concentration range,[2],≤ 12 µM
same,IC50,[3],380 nM
same,penetration into receptor solution,[4],not into the receptor solution
same,amount in epidermis/dermis (viable skin),"[4]; pig, 24 h, 1 % w/v",0.324%

# Source: patent US20220409578A1, “FUNCTIONALIZED 1,3-BENZENE DIOLS AND THEIR METHOD OF USE FOR THE TREATMENT OF RADIATION DERMATITIS AND OTHER SKIN DISORDERS” (KANNALIFE SCIENCES, INC., priority 2019, published 2022)
